Legend:
H1703 cells = assay: Cell Titer-Glo cell viability assay, H1703 NSCLC cells; type: cell-based, Human; details: for cells killed: viability 72 hr later
Description: Cells were maintained at 37° C., 5% CO2 atmosphere.
[…] […] Viability was assessed 72 hr later.
Combination Index (CI) was then determined using the median effect analysis software CalcuSyn 2.0 (CalcuSyn, Inc.). A Combination Index greater than 1, equal to 1 or less than 1 indicates antagonism, additivity and synergism, respectively.

H1838 cells = assay: Cell viability assay, H1838 NSCLC cells; type: cell-based, Human; details: bortezomib day 1, compound 1 day 2; 72 hours after compound 1 exposure (FIG. 6)
Description: Human H1703, H1975, H1838 NSCLC cells, U266 multiple myeloma cells, HCT116 colon cancer cells and Detroit562 head and neck cancer cells were purchased from the American Type Culture Collection (Manassas, Va.). H1975, H1703, H1838 and U266 cells were grow in RPMI media, HCT116 cells were grown in McCoy's media and Detroit562 cells were grown in MEM. Fetal bovine serum (10%) was added to all media, along with 2 mM L-glutamine and antibiotics (100 IU/ml penicillin and 100 μg/ml streptomycin) purchased from Sigma Aldrich. Cells were maintained at 37° C., 5% CO2 atmosphere.
Cell viability was measured using the Cell Titer-Glo assay (Promega). In brief, cells were plated in 96-well plates in triplicate at optimal seeding density (determined empirically for each cell line) and incubated at 37° C., 5% CO2 atmosphere for 24 hr prior to the addition of drug or vehicle (0.3% DMSO) to the culture medium. At the end of the assay, Cell Titer-Glow was added to the wells per manufactures recommendation, shaken for two minutes and incubated for 10 minutes at room temperature. Luminescence (0.1 sec) was measured with a Victor II microplate reader (Perkin Elmer) and the resulting data were used to calculate cell viability, normalized to vehicle control.

[1] = Phase 1 clinical investigations, intravenous Compound 1; type: in vivo, human
Source text: Compound 1 was advanced into phase 1 clinical investigations studying patients with refractory hematologic malignancies using two intravenous schedules of administration: weekly for 3 out of every 4 weeks and twice weekly without breaks dosing by one-hour infusion.

[2] = bortezomib day 1, compound 1 Day 2, 72 hours after compound 1 exposure (FIG. 4)
[3] = concurrent, one hour on both days 1 and 2, 72 hours after final drug exposure (FIG. 5)

| patients with Grade 1-2 infusional reactions ([1]; phase 1 patients) | Structure (SMILES) | cells killed (H1703 cells; bortezomib alone 22 nM, 1 hr exposure Day 1 and Day 2) | cell death by microscopy (H1703 cells; [2]) | cells killed (H1703 cells; bortezomib on its own 15 nM, 8 hr pulse Day 1, washout) | cell death by microscopy (H1703 cells; [3]) | cell death by microscopy (H1838 cells) | cells killed (H1703 cells; compound 1 alone 50 nM, 8 hr pulse, washout) | cells killed (H1703 cells; compound 1 alone 74 nM, 1 hr exposure Day 1 and Day 2) | efficacy signals, hematologic malignancies ([1]; phase 1 AML and CML patients) | cardiac effects following the infusion ([1]; phase 1 patients) | efficacy signals, solid tumors ([1]; phase 1 patients) | severe hepatotoxicity ([1]; phase 1 patients, unlike geldanamycin-based HSP90 inhibitors) | dose limiting toxicities ([1]; phase 1 program, solid tumors and refractory hematologic malignancies, one-hour infusion) |
| --- | --- | --- | --- | --- | --- | --- | --- | --- | --- | --- | --- | --- | --- |
| – | CC(C)C[C@H](NC(=O)[C@H](Cc1ccccc1)NC(=O)c1cnccn1)B(O)O [bortezomib, reference compound] | 15% | weak activity | 25% | weak activity | weak activity | – | – | – | – | – | – | – |
| 5% | CC(C)c1cc(-c2nnc(O)n2-c2ccc3c(ccn3C)c2)c(O)cc1O [compound 1, 3-(2,4-dihydroxy-5-isopropyl-phenyl)-4-(1-methyl-indol-5-yl)-5-hydroxy-[1,2,4] triazole] | – | weak activity | – | weak activity | weak activity | 10% | 15% | declines in peripheral and bone marrow blasts | Moderate tachycardia and PR interval prolongation | partial responses in colorectal cancer and melanoma | has not been observed | reversible fatigue and diarrhea |

— patent US20130331357A1, “COMBINATION THERAPY OF HSP90 INHIBITORY COMPOUNDS WITH PROTEASOME INHIBITORS” (SYNTA PHARMACEUTICALS CORP., priority 2011, published 2013)
